Our source for the Km values is PMC8233510 (Molecular Biology and Evolution, 2021).

What all share (assay): […]-SAM radiochemical methyltransferase assay, Michaelis-Menten fit
Conditions in all cases: SAM 320 μM (saturating), 50 mM Tris-HCl, 24 °C

In one experiment the test system is PcCS2. The class given is biochemical, Paullinia cupana.
A further experiment relates to TcAncCS1. In kind it is biochemical, synthetic construct.
In a further experiment the test system is TcCS2. The class given is biochemical, Theobroma cacao.
The test system of another experiment is TcAncCS2. The class given is biochemical, synthetic construct.
The next experiment has as its system CsAncCS. In kind it is biochemical, synthetic construct.
For the next experiment, the system named is PcAncCS1. The class given is biochemical, synthetic construct.
In a further experiment the test system is TcCS1. The class given is biochemical, Theobroma cacao.
Another experiment concerns PcCS1. In kind it is biochemical, Paullinia cupana.

In the case of `Cn1c(=O)[nH]c(=O)c2[nH]cnc21` [3X, 3-methylxanthine], the Km with PcCS2 came out at 677 µM; in the experiment on TcAncCS1, 139 µM; in the experiment with TcCS2, 49.1 µM; in the experiment with TcAncCS2 it was 154 µM.
Regarding `Cn1cnc2[nH]c(=O)[nH]c(=O)c21` [7X, 7-methylxanthine], the Michaelis constant (Km) with TcAncCS1 came out at 34.6 µM; in the experiment on CsAncCS, 26.7 µM.
Turning to `O=c1[nH]c(=O)c2[nH]cnc2[nH]1` [X, xanthine], the Km amounted to 418 µM in the experiment on PcAncCS1; 95.8 µM with TcCS1; 53.4 µM in the experiment with TcAncCS1; 95.4 µM in the experiment on PcCS1; 4.14 µM with TcAncCS2.

The Km is the concentration of substrate that gives half-maximal velocity.
